One series deals with T1, CYP2A6 (Homo sapiens, UniProt P11509).
T1 sequence (P11509 1-494): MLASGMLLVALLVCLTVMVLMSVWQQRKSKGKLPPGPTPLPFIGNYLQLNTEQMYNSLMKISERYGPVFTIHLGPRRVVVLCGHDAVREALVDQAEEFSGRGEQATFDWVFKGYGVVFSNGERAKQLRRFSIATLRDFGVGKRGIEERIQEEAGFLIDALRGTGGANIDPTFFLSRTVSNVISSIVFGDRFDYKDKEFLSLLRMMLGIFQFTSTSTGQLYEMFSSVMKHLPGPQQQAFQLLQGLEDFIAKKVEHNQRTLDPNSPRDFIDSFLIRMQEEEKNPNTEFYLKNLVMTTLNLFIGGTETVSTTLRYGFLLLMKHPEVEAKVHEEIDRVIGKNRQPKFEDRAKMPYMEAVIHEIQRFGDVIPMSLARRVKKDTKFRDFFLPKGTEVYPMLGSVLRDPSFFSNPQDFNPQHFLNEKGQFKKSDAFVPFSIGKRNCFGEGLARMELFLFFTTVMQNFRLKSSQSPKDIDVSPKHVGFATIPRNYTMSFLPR
To be noted: previous studies, ref Shimada et al., 2016a; cited from earlier work.

The target in the next series is T2, CYP1B1.1 (Homo sapiens, UniProt Q16678).
T2 sequence (Q16678 1-543): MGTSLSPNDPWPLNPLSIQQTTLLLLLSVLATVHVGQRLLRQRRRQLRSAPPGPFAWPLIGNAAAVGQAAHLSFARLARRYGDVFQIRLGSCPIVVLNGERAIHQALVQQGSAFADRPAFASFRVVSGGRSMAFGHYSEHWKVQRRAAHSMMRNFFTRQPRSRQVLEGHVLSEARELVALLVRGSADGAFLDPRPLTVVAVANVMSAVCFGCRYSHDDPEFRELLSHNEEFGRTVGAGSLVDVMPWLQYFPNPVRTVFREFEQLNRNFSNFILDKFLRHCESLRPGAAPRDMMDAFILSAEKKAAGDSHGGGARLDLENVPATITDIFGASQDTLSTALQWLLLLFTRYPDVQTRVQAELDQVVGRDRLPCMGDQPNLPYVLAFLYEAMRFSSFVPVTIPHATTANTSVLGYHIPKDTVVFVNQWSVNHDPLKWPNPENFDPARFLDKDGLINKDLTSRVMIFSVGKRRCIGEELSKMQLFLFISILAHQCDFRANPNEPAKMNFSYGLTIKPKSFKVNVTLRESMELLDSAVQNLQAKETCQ
The series is classed as in vitro ADME. Particulars: 10 µM substrate, 37 °C, 20 min, HPLC-fluorescence.

The target of another series is T3, CYP2A13.1 (Homo sapiens, UniProt Q16696).
T3 sequence (Q16696 31-494 limits assumed): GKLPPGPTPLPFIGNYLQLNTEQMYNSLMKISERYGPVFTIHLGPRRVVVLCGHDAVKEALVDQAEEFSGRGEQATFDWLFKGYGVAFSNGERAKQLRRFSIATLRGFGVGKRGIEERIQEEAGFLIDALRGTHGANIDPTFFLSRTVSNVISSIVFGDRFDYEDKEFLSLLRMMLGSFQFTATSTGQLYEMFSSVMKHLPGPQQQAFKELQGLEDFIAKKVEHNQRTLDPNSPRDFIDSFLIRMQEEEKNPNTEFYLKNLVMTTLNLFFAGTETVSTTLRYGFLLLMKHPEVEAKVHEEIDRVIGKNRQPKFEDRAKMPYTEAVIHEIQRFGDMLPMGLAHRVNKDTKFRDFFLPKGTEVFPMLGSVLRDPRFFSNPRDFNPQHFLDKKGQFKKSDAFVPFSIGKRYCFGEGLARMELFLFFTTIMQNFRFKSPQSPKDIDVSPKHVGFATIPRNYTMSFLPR
It counts as in vitro ADME. Particulars: 10 µM substrate, 37 °C, 20 min, b5 added, HPLC-fluorescence.

Series [1] deals with CYP1A1, 1A2, 1B1.1, 1B1.3, 2D6, 2E1, 2C9, and 3A4. In words: Spectral binding titration with other purified human P450 enzymes. To be noted: authors' assay conditions.
The next series addresses T4, CYP1A1 (Homo sapiens, UniProt P04798).
T4 sequence (P04798 1-512): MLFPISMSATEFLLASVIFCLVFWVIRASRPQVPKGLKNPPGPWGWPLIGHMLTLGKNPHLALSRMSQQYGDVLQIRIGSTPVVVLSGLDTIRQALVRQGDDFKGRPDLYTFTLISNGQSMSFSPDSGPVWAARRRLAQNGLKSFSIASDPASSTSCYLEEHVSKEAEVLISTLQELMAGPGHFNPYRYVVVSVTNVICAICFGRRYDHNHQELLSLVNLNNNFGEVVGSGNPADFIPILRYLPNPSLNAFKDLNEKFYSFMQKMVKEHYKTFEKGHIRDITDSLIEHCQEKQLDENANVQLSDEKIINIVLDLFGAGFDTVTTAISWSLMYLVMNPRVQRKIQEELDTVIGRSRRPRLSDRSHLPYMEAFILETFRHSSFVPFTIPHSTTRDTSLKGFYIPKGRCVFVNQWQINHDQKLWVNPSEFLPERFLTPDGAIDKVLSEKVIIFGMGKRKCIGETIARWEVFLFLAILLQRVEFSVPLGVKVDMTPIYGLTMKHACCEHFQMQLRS
It counts as in vitro ADME. To be noted: 10 µM substrate, 37 °C, 20 min, HPLC-fluorescence.

Molecules are shown by their SMILES.

Consider `c1cc2ccc3cccc4ccc(c1)c2c34` [pyrene], for which, on CYP2A6, the “Type I binding spectra” value is recorded as “do not show detectable Type I binding spectra”.

For the molecule `O=[N+]([O-])c1ccc2ccc3cccc4ccc1c2c34` [1-nitropyrene], the “Type I binding spectra” value on CYP2A6 is given as “do not show detectable Type I binding spectra”.

Turning to `CC(=O)c1ccc2ccc3cccc4ccc1c2c34` [1-acetylpyrene], the “Type I binding spectra” value on CYP2A6 is reported as “do not show detectable Type I binding spectra”.

On to `Clc1ccc2ccc3cccc4ccc1c2c34` [1-chloropyrene], for which the Hydroxylated products formed entry is “only formed the 6-hydroxy product” on CYP1B1.1; “catalyzed hydroxylation at the 8- and 3-positions” at CYP2A13.1; “produced 8-, 6-, and 3-hydroxylated products at significant levels” at CYP1A1. Further, the Spectral changes result in series [1] is reported as “did not show any detectable spectral changes”.
